Test results from patent US7307063B2, “Melanocortin metallopeptides for treatment of sexual dysfunction” (Palatin Technologies, Inc., priority 2001, dated 2007).
Non-standard residues stand in square brackets, D forms with d. No end group written: not given here. *: point of attachment. 2Nal = N[C@@H](Cc1ccc2ccccc2c1)C(=O)O; Heptanoyl = CCCCCCC(=O)*; Nle = CCCC[C@H](N)C(=O)O

Assays:
MC4-R = molecular target: T1, MC4-R (Homo sapiens, UniProt P32245); assay: Competitive binding assay: inhibition of 125I-NDP-α-MSH binding to HEK-293 membranes with cloned human receptor subtype 4; conditions: Table 6, mean of triplicate
T1 construct: expressed in transfected cells; host or cells: HEK-293
T1 sequence (P32245 whole entry): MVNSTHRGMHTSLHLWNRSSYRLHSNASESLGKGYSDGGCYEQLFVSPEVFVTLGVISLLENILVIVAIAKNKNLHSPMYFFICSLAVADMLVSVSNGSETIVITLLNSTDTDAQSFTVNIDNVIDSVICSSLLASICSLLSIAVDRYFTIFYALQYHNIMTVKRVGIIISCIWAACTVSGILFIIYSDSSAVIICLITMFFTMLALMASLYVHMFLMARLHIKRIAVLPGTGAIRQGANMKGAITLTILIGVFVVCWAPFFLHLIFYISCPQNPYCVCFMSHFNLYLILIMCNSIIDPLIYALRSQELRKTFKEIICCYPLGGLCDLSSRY
Protocol: (§1) Rhenium-complexed metallopeptides of the formulas given in Table 1 were prepared, with the metallopeptides complexed with rhenium using the rhenium transfer agent ReOCl3(PPh3)2 in the presence of 1,8-Diazabicyclo[5,4,0] undec-7-ene as a base, as disclosed in International Application PCT/US00/16396, filed Jun. 14, 2000, Melanocortin Metallopeptide Constructs, Combinatorial Libraries and Applications, incorporated by reference herein. Affinities of compounds were measured using membranes from HEK-293 cells containing cloned human melanocortin receptor subtypes 3, 4 and 5. MC1-R membranes were isolated from B16—F10 mouse melanoma cells. The assay tube also contained a chosen concentration of the test peptide of this invention, complexed to a rhenium metal ion as indicated, for determining its efficacy in inhibiting the binding of ^125I-NDP-α-MSH to its receptor. Non-specific binding was measured by complete inhibition of binding of ^125I-NDP-α-MSH in the assay with the presence of 1 μM α-MSH. 100% specific binding was defined as the difference in radioactivity (cpm) bound to cell membranes in the absence and presence of 1 μM α-MSH. The cpm obtained in presence of test compounds were normalized with respect to 100% specific binding to determine the percent inhibition of ^125I-NDP-α-MSH binding.
(§2) Peptide sequences set forth in Table 6 were prepared using conventional synthetic means. The resulting sequences were rhenium-complexed to form metallopeptides, with the metallopeptides complexed with rhenium using the rhenium transfer agent ReOCl3(PPh3)2 in the presence of 1,8-Diazabicyclo[5,4,0] undec-7-ene as a base. Percent inhibition was determined as in Example 1 using the Re-complexed metallopeptides, using the same methods as described therein. All measures are means of triplicate determinations.

MC1-R = molecular target: T2, MC1-R (Mus musculus, UniProt Q01727); assay: Competitive binding assay: inhibition of 125I-NDP-α-MSH binding to membranes from B16-F10 mouse melanoma cells; conditions: Table 6, mean of triplicate
T2 construct: MC1-R membranes were isolated from B16—F10 mouse melanoma cells; endogenous in cells; host or cells: B16-F10 mouse melanoma cells
T2 sequence (Q01727 whole entry): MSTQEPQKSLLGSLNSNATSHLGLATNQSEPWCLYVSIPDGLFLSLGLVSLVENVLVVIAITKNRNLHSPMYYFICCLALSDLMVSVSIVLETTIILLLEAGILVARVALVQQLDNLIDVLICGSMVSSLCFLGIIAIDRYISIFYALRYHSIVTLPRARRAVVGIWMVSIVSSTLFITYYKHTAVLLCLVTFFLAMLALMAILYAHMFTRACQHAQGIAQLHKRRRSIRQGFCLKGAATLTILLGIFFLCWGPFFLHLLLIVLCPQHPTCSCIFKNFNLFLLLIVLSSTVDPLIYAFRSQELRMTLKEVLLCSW
Protocol: as §1, §2

Row | Substance | % Inhibition of Binding hMC4-R (MC4-R; 1 μM) | % Inhibition of Binding MC1-R (MC1-R; 1 μM) | other results
1 | 1′-Naphthyl acetyl-Arg-Arg-D-Phe(4′-Cl)-Cys-Trp-NH2 | 98% | 97% | –
2 | 2′-Naphthyl acetyl-Arg-Arg-D-Phe(3′-Cl)-Cys-Trp-NH2 | 90% | 78% | –
3 | 2′-Naphthyl acetyl-Arg-Arg-D-Phe(4′-Cl)-Cys-Trp-NH2 | 96% | 93% | –
4 | 3′-Br Phenyl acetyl-Arg-Ala-D-Phe(3′-Cl)-Cys-Trp-NH2 | 84% | 23% | –
5 | 3′-Br Phenyl acetyl-Arg-Ala-D-Phe(4′-CF3)-Cys-Trp-NH2 | 95% | 22% | –
6 | 3′-Br Phenyl acetyl-Arg-Ala-D-Phe(4′-Me)-Cys-Trp-NH2 | 96% | 25% | –
7 | 3′-Br-Phenylacetyl-Arg-Arg-D-Phe(4′-CH2PO3Et3)-Cys-Trp-NH2 | 61% | 97% | –
8 | 3′-Br-Phenylacetyl-Lys-Ala-D-Phe(4′-CH3)Cys-Lys-NH2 | 73% | 34% | –
9 | 3′-Cl Phenyl acetyl-Arg-Ala-D-Phe(4′-CF3)-Cys-Trp-NH2 | 95% | 21% | –
10 | 3′-Cl Phenyl acetyl-Arg-Arg-D-Phe(4′-CF3)-Cys-Trp-NH2 | 99% | 85% | –
11 | 3′-Cl-Phenylacetyl-Arg-Arg-D-Phe(4′-CH2PO3Et3)-Cys-Trp-NH2 | 52% | 97% | –
12 | 4′-Aminomethyl-Phenylacetyl-Arg-Arg-D-Phe(4′-Cl)-Cys-Trp-NH2 | – | – | % Inhibition of Binding MC1-R (MC1-R; 0.1 μM): 81%; % Inhibition of Binding hMC4-R (MC4-R; 0.1 μM): 57%
13 | (N-PhEt)-D-Phe(2′-Cl)-Lys-Nal 2′-Cys-NH2 | – | – | % Inhibition of Binding MC1-R (MC1-R; 0.1 μM): 64%; % Inhibition of Binding hMC4-R (MC4-R; 0.1 μM): 80%
14 | Ac-His-HyP(Bzl)-D-Phe(2′-Cl)-Arg-Nal 2′-Cys-NH2 | 99% | 84% | –
15 | Ac-Nle-Arg-Arg-D-Nal 2′-Cys-Trp-Lys-NH2 | – | – | % Inhibition of Binding MC1-R (MC1-R; 0.1 μM): 95%; % Inhibition of Binding hMC4-R (MC4-R; 0.1 μM): 96%
16 | Ac-Ser(Bzl)-D-Phe(4′-Cl)-Arg-Nal 2′-Cys-NH2 | 97% | 49% | –
17 | Ac-WA[dF][dC]R-NH2 | 0% | 24% | –
18 | Ac-WA[dF][dC]RW-NH2 | 3% | 15% | –
19 | Ac-[Nle]AH[dF]RW[dC]K-NH2 | 41% | 87% | –

Row | Substance | % Inhibition of Binding hMC4-R (MC4-R; 1 μM) | % Inhibition of Binding MC1-R (MC1-R; 1 μM) | other results
20 | Ac-[Nle]A[dF][dC]RW-NH2 | 3% | 29% | –
21 | D-(N-Bzl) Phe(2′-Cl)-Lys-Nal 2′-Cys-NH2 | 97% | 69% | –
22 | D-Phe(2′-Cl)-Lys-Nal 2′-Cys-NH2 | 69% | 51% | –
23 | D-Phe(4′-Cl)-Arg-Nal 2′-Cys-Lys-NH2 | – | – | % Inhibition of Binding MC1-R (MC1-R; 0.01 μM): 43%; % Inhibition of Binding hMC4-R (MC4-R; 0.01 μM): 73%
24 | FR[dW]CK-NH2 | 12% | 21% | –
25 | FR[dW]CW-NH2 | 34% | 37% | –
26 | Heptanoyl-Hphe-D-Phe(4′-Cl)-Arg-Trp-Cys-NH2 | – | – | % Inhibition of Binding MC1-R (MC1-R; 0.1 μM): 45%; % Inhibition of Binding hMC4-R (MC4-R; 0.1 μM): 80%
27 | Heptanoyl-R[dF]GWCK-NH2 | 32% | 92% | –
28 | Heptanoyl-Ser(Bzl)-D-Nal 2′-Arg-Trp-Cys-Lys-NH2 | 100% | 72% | –
29 | Heptanoyl-Ser(Bzl)-D-Phe(2′-Cl)-Lys-Nal 2′-Cys-NH2 | 91% | 62% | –
30 | Heptanoyl-Ser(Bzl)-D-Phe(2′-F)-Lys-Nal 2′-Cys-NH2 | 83% | 57% | –
31 | Heptanoyl-Ser(Bzl)-D-Phe(4′-Br)-Arg-Trp-Cys-NH2 | – | – | % Inhibition of Binding MC1-R (MC1-R; 0.1 μM): 21%; % Inhibition of Binding hMC4-R (MC4-R; 0.1 μM): 90%
32 | Heptanoyl-Ser(Bzl)-D-Phe(4′-Cl)-Arg-Asp(OcHx)-Cys-NH2 | – | – | % Inhibition of Binding MC1-R (MC1-R; 0.1 μM): 15%; % Inhibition of Binding hMC4-R (MC4-R; 0.1 μM): 25%
33 | Heptanoyl-Ser(Bzl)-D-Phe(4′-Cl)-Arg-Hphe-Cys-NH2 | 43% | 38% | –
34 | Heptanoyl-Ser(Bzl)-D-Phe(4′-Cl)-Arg-Nal 1′-Cys-NH2 | – | – | % Inhibition of Binding MC1-R (MC1-R; 0.1 μM): 3%; % Inhibition of Binding hMC4-R (MC4-R; 0.1 μM): 47%
35 | Heptanoyl-Ser(Bzl)-D-Phe(4′-Cl)-Arg-Nal 2′-Cys-Lys-NH2 | – | – | % Inhibition of Binding MC1-R (MC1-R; 0.1 μM): 78%; % Inhibition of Binding hMC4-R (MC4-R; 0.1 μM): 97%
36 | Heptanoyl-Ser(Bzl)-D-Phe(4′-Cl)-Arg-Nal 2′-Cys-NH2 | – | – | % Inhibition of Binding MC1-R (MC1-R; 0.1 μM): 16%; % Inhibition of Binding hMC4-R (MC4-R; 0.1 μM): 94%
37 | Heptanoyl-Ser(Bzl)-D-Phe(4′-Cl)-Arg-Phe(2′-Cl)-Cys-NH2 | – | – | % Inhibition of Binding MC1-R (MC1-R; 0.1 μM): 9%; % Inhibition of Binding hMC4-R (MC4-R; 0.1 μM): 28%
38 | Heptanoyl-Ser(Bzl)-D-Phe(4′-Cl)-Arg-Phe(2′-F)-Cys-NH2 | – | – | % Inhibition of Binding MC1-R (MC1-R; 0.1 μM): 14%; % Inhibition of Binding hMC4-R (MC4-R; 0.1 μM): 46%

More lines, main results first:

Row | % Inhibition of Binding hMC4-R (MC4-R; 1 μM) | % Inhibition of Binding MC1-R (MC1-R; 1 μM) | Substance | other results
39 | 98% | – | 1-Naphthylacetyl-Arg-Arg-D-Phe(4′-Cl)-Cys-Nal 2′-NH2 | –
40 | 92% | 77% | 1′-Naphthyl acetyl-Arg-Arg-D-Phe(3′-Cl)-Cys-Trp-NH2 | –
41 | 96% | 79% | 3′-Br Phenyl acetyl-Arg-Arg-D-Phe(3′-Cl)-Cys-Trp-NH2 | –
42 | 69% | 65% | 3′-Br-Phenylacetyl-Lys-Lys-D-Phe(4′-CH3)Cys-Lys-NH2 | –
43 | 84% | 61% | 4′-Aminomethyl-Phenylacetyl Arg-Arg-Ala-D-Phe(4′-Cl)-Cys-Trp-NH2 | –
44 | 46% | 23% | (R)-4-amino-5-phenyl pentanoyl-Lys-Ala-D-Phe(4′-Me)-Cys-Trp-NH2 | –
45 | 0% | 8% | Ac-KA[dF][dC]R-NH2 | –
46 | 13% | 25% | Ac-KA[dF][dC]RW-NH2 | –
47 | 36% | 23% | Ac-Nle-Arg-Ala-D-Nal 2′-Cys-Lys-NH2 | –
48 | 96% | 100% | Ac-Nle-Arg-Arg-D-Nal 2′-Cys-Lys-NH2 | –
49 | 0% | 22% | Ac-[Nle]A[dF][dC]R-NH2 | –
50 | 81% | – | D-Phe-Arg-Trp-Cys-Lys-NH2 ([dF]RWCK-NH2; also: metallopeptide) | –
51 | 70% | 90% | D-Phe-Arg-Trp-Cys-Trp-NH2 ([dF]RWCW-NH2; also: metallopeptide) | –
52 | 18% | 15% | Heptanoyl-Ala-Nal 2′-Cys-Trp-NH2 (Heptanoyl-A[2Nal]CW-NH2; also: metallopeptide, metal not given here) | –
53 | 20% | 10% | Heptanoyl-D-Hphe-D-Phe(2′-Cl)-Lys-Nal 2′-Cys-NH2 | –
54 | 75% | 82% | Heptanoyl-D-Phe-Arg-Trp-Cys-Lys-NH2 (Heptanoyl-[dF]RWCK-NH2; also: metallopeptide) | –
55 | 98% | 100% | Heptanoyl-H[dF]RWCK-NH2 | –
56 | 97% | 99% | Heptanoyl-P[dF]RWCK-NH2 | –
57 | 0% | 27% | Heptanoyl-Ser(Bzl)-D-Nal 2′-Gly-Trp-Cys-Lys-NH2 | –
58 | 82% | 27% | Heptanoyl-Ser(Bzl)-D-Phe(2′-Br)-Lys-Nal 2′-Cys-NH2 | –
59 | 6% | 12% | Heptanoyl-Ser(Bzl)-D-Phe(2′-Cl)-Lys-Hphe-Cys-NH2 | –
60 | 19% | 20% | Heptanoyl-Ser(Bzl)-D-Phe(2′-Cl)-Lys-Phe-Cys-NH2 | –
61 | 15% | 16% | Heptanoyl-Ser(Bzl)-D-Phe(2′-Cl)-Lys-Phg-Cys-NH2 | –
62 | 72% | 30% | Heptanoyl-Ser(Bzl)-D-Phe(4′-Cl)-Arg-Cys(Bzl)-Cys-NH2 | –
